{"source": "ChEMBL document CHEMBL1201862", "about": "“PubChem BioAssay data set” (2004)", "assay_in_all_cases": "inhibition of tumour cell growth, NCI panel, 48 h", "key": {"786-0": {"system": "786-0"}, "HOP-62": {"system": "HOP-62"}, "M14": {"system": "M14"}, "A498": {"system": "A498"}, "HCT-15": {"system": "HCT-15"}, "HT-29": {"system": "HT-29"}, "HCT-116": {"system": "HCT-116"}, "RXF 631": {"system": "RXF 631"}, "LXFL 529": {"system": "LXFL 529"}, "SK-OV-3": {"system": "SK-OV-3"}, "UACC-257": {"system": "UACC-257"}, "TK-10": {"system": "TK-10"}, "OVCAR-5": {"system": "OVCAR-5"}, "LOX IMVI": {"system": "LOX IMVI"}, "DMS-273": {"system": "DMS-273"}, "UACC-62": {"system": "UACC-62"}, "OVCAR-8": {"system": "OVCAR-8"}, "DMS-114": {"system": "DMS-114"}, "SR": {"system": "SR"}, "U-251": {"system": "U-251"}, "SF-539": {"system": "SF-539"}, "Malme-3M": {"system": "Malme-3M"}, "M19-MEL": {"system": "M19-MEL"}, "NCI-H522": {"system": "NCI-H522"}, "RXF 393": {"system": "RXF 393"}, "SN12C": {"system": "SN12C"}, "HL-60": {"system": "HL-60"}, "SNB-78": {"system": "SNB-78"}, "CAKI-1": {"system": "CAKI-1"}, "SK-MEL-5": {"system": "SK-MEL-5"}, "DLD-1": {"system": "DLD-1"}, "RPMI-8226": {"system": "RPMI-8226"}, "UO-31": {"system": "UO-31"}, "NCI-H460": {"system": "NCI-H460"}, "HCC 2998": {"system": "HCC 2998"}, "A549": {"system": "A549"}, "IGROV-1": {"system": "IGROV-1"}, "OVCAR-3": {"system": "OVCAR-3"}, "K562": {"system": "K562"}, "HOP-92": {"system": "HOP-92"}, "COLO 205": {"system": "COLO 205"}, "ACHN": {"system": "ACHN"}, "NCI-H226": {"system": "NCI-H226"}, "EKVX": {"system": "EKVX"}, "SNB-19": {"system": "SNB-19"}, "SK-MEL-28": {"system": "SK-MEL-28"}, "KM-20L2": {"system": "KM-20L2"}, "MOLT-4": {"system": "MOLT-4"}, "HOP-18": {"system": "HOP-18"}, "XF498": {"system": "XF498"}, "SNB-75": {"system": "SNB-75"}, "CCRF-CEM": {"system": "CCRF-CEM"}, "SF-268": {"system": "SF-268"}, "NCI-H23": {"system": "NCI-H23"}, "KM12": {"system": "KM12"}, "SF-295": {"system": "SF-295"}}, "note": "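Five concentrations, 48 hours, 96-well plates. GI50 = concentration required for 50% inhibition of growth.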 Active and inactive are the calls of the source. No stated cut-off is given here; in the data, active = GI50 up to about 1.1 µM and inactive = higher.", "data": [{"compound": "COCCN1C2=CCCCC2=Nc2c1nc(N)[nH]c2=O", "values": [{"measurement": "GI50", "setting": "786-0", "result": "> 100 µM (inactive)"}, {"measurement": "GI50", "setting": "HOP-62", "result": "> 100 µM (inactive)"}, {"measurement": "GI50", "setting": "M14", "result": "> 100 µM (inactive)"}, {"measurement": "GI50", "setting": "A498", "result": "> 100 µM (inactive)"}, {"measurement": "GI50", "setting": "HCT-15", "result": "> 100", "unit": "µM"}, {"measurement": "GI50", "setting": "HT-29", "result": "> 100 µM (inactive)"}, {"measurement": "GI50", "setting": "HCT-116", "result": "> 100 µM (inactive)"}, {"measurement": "GI50", "setting": "RXF 631", "result": "> 100 µM (inactive)"}, {"measurement": "GI50", "setting": "LXFL 529", "result": "> 100 µM (inactive)"}, {"measurement": "GI50", "setting": "SK-OV-3", "result": "> 100 µM (inactive)"}, {"measurement": "GI50", "setting": "UACC-257", "result": "> 100 µM (inactive)"}, {"measurement": "GI50", "setting": "TK-10", "result": "> 100 µM (inactive)"}, {"measurement": "GI50", "setting": "OVCAR-5", "result": "> 100 µM (inactive)"}, {"measurement": "GI50", "setting": "LOX IMVI", "result": "> 100 µM (inactive)"}, {"measurement": "GI50", "setting": "DMS-273", "result": "> 100 µM (inactive)"}, {"measurement": "GI50", "setting": "UACC-62", "result": "> 100 µM (inactive)"}, {"measurement": "GI50", "setting": "OVCAR-8", "result": "> 100 µM (inactive)"}, {"measurement": "GI50", "setting": "DMS-114", "result": "> 100 µM (inactive)"}, {"measurement": "GI50", "setting": "SR", "result": "> 100 µM (inactive)"}, {"measurement": "GI50", "setting": "U-251", "result": "> 100 µM (inactive)"}, {"measurement": "GI50", "setting": "SF-539", "result": "> 100 µM (inactive)"}, {"measurement": "GI50", "setting": "Malme-3M", "result": "> 100 µM (inactive)"}, {"measurement": "GI50", "setting": "M19-MEL", "result": "> 100 µM (inactive)"}, {"measurement": "GI50", "setting": "NCI-H522", "result": "> 100 µM (inactive)"}, {"measurement": "GI50", "setting": "RXF 393", "result": "> 100 µM (inactive)"}, {"measurement": "GI50", "setting": "SN12C", "result": "> 100 µM (inactive)"}, {"measurement": "GI50", "setting": "HL-60", "result": "> 100 µM (inactive)"}, {"measurement": "GI50", "setting": "SNB-78", "result": "> 100 µM (inactive)"}, {"measurement": "GI50", "setting": "CAKI-1", "result": "> 100 µM (inactive)"}, {"measurement": "GI50", "setting": "SK-MEL-5", "result": "> 100 µM (inactive)"}, {"measurement": "GI50", "setting": "DLD-1", "result": "> 100 µM (inactive)"}, {"measurement": "GI50", "setting": "RPMI-8226", "result": "> 100 µM (inactive)"}, {"measurement": "GI50", "setting": "UO-31", "result": "> 100 µM (inactive)"}, {"measurement": "GI50", "setting": "NCI-H460", "result": "> 100 µM (inactive)"}, {"measurement": "GI50", "setting": "HCC 2998", "result": "> 100 µM (inactive)"}, {"measurement": "GI50", "setting": "A549", "result": "> 100 µM (inactive)"}, {"measurement": "GI50", "setting": "IGROV-1", "result": "> 100 µM (inactive)"}, {"measurement": "GI50", "setting": "OVCAR-3", "result": "> 100 µM (inactive)"}, {"measurement": "GI50", "setting": "K562", "result": "> 100 µM (inactive)"}, {"measurement": "GI50", "setting": "HOP-92", "result": "> 100 µM (inactive)"}, {"measurement": "GI50", "setting": "COLO 205", "result": "> 100 µM (inactive)"}, {"measurement": "GI50", "setting": "ACHN", "result": "> 100 µM (inactive)"}, {"measurement": "GI50", "setting": "NCI-H226", "result": "> 100 µM (inactive)"}, {"measurement": "GI50", "setting": "EKVX", "result": "> 100 µM (inactive)"}, {"measurement": "GI50", "setting": "SNB-19", "result": "> 100 µM (inactive)"}, {"measurement": "GI50", "setting": "SK-MEL-28", "result": "> 100 µM (inactive)"}, {"measurement": "GI50", "setting": "KM-20L2", "result": "> 100 µM (inactive)"}, {"measurement": "GI50", "setting": "MOLT-4", "result": "> 100 µM (inactive)"}, {"measurement": "GI50", "setting": "HOP-18", "result": "> 100 µM (inactive)"}, {"measurement": "GI50", "setting": "XF498", "result": "> 100 µM (inactive)"}, {"measurement": "GI50", "setting": "SNB-75", "result": "> 100 µM (inactive)"}, {"measurement": "GI50", "setting": "CCRF-CEM", "result": "> 100 µM (inactive)"}, {"measurement": "GI50", "setting": "SF-268", "result": "> 100 µM (inactive)"}, {"measurement": "GI50", "setting": "NCI-H23", "result": "> 100 µM (inactive)"}, {"measurement": "GI50", "setting": "KM12", "result": "> 100 µM (inactive)"}, {"measurement": "GI50", "setting": "SF-295", "result": "> 100 µM (inactive)"}]}]}
